Experimental data: the NIST ThermoML archive (doi:10.1016/j.jct.2006.07.025)
± gives the expanded uncertainty stated by the source.

Assay: xn = mol fraction of the nth substance listed
Conditions: for surface tension liquid-gas: Pendant drop shape; for mass density: 101 kPa, Liquid, Vibrating tube method

Cc1cc(C)cc(C)c1 [1,3,5-trimethylbenzene] + CCCCOC(C)=O
Conditions	mass density [kg/m3]	surface tension liquid-gas [mN/m]
298.15 K, x2 = 0	861.04 ± 0.18	28.09 ± 0.31
298.15 K, x2 = 0.0736	861.9 ± 0.17	–
298.15 K, x2 = 0.1009	862.23 ± 0.17	27.72 ± 0.31
298.15 K, x2 = 0.1521	862.84 ± 0.17	–
298.15 K, x2 = 0.2018	863.45 ± 0.17	27.34 ± 0.3
298.15 K, x2 = 0.2523	864.09 ± 0.16	–
298.15 K, x2 = 0.3003	864.7 ± 0.16	26.98 ± 0.3
298.15 K, x2 = 0.3499	865.36 ± 0.16	–
298.15 K, x2 = 0.4005	866.03 ± 0.16	26.61 ± 0.29
298.15 K, x2 = 0.45	866.72 ± 0.16	–
298.15 K, x2 = 0.4996	867.44 ± 0.15	26.27 ± 0.29
298.15 K, x2 = 0.5446	868.11 ± 0.15	–
298.15 K, x2 = 0.5979	868.92 ± 0.15	25.93 ± 0.29
298.15 K, x2 = 0.6503	869.76 ± 0.15	–
298.15 K, x2 = 0.7016	870.59 ± 0.15	25.62 ± 0.28
298.15 K, x2 = 0.7504	871.44 ± 0.15	–
298.15 K, x2 = 0.8005	872.32 ± 0.14	25.36 ± 0.28
298.15 K, x2 = 0.846	873.17 ± 0.14	–
298.15 K, x2 = 0.8981	874.13 ± 0.14	25.12 ± 0.28
298.15 K, x2 = 0.9333	874.87 ± 0.14	–
303.15 K, x2 = 0	856.96 ± 0.18	27.67 ± 0.31
303.15 K, x2 = 0.1005	858.04 ± 0.17	27.29 ± 0.3
303.15 K, x2 = 0.1997	859.17 ± 0.17	26.9 ± 0.3
303.15 K, x2 = 0.3	860.37 ± 0.16	26.53 ± 0.29
303.15 K, x2 = 0.3996	861.61 ± 0.16	26.14 ± 0.29
303.15 K, x2 = 0.5007	862.98 ± 0.16	25.79 ± 0.29
303.15 K, x2 = 0.6007	864.4 ± 0.15	25.45 ± 0.28
303.15 K, x2 = 0.7001	865.94 ± 0.15	25.12 ± 0.28
303.15 K, x2 = 0.7971	867.56 ± 0.15	24.85 ± 0.28
303.15 K, x2 = 0.9009	869.4 ± 0.14	24.6 ± 0.27
308.15 K, x2 = 0	852.84 ± 0.18	27.24 ± 0.3
308.15 K, x2 = 0.1002	853.8 ± 0.17	26.84 ± 0.3
308.15 K, x2 = 0.1986	854.82 ± 0.17	26.44 ± 0.29
308.15 K, x2 = 0.2997	855.94 ± 0.16	26.05 ± 0.29
308.15 K, x2 = 0.4003	857.12 ± 0.16	25.66 ± 0.29
308.15 K, x2 = 0.5007	858.39 ± 0.16	25.29 ± 0.28
308.15 K, x2 = 0.5997	859.71 ± 0.15	24.94 ± 0.28
308.15 K, x2 = 0.7005	861.18 ± 0.15	24.6 ± 0.27
308.15 K, x2 = 0.8	862.75 ± 0.15	24.32 ± 0.27
308.15 K, x2 = 0.9006	864.44 ± 0.14	24.07 ± 0.27
313.15 K, x2 = 0	848.74 ± 0.18	26.82 ± 0.3
313.15 K, x2 = 0.0498	849.12 ± 0.18	–
313.15 K, x2 = 0.0997	849.59 ± 0.17	26.39 ± 0.3
313.15 K, x2 = 0.15	850.08 ± 0.17	–
313.15 K, x2 = 0.2012	850.6 ± 0.17	25.97 ± 0.29
313.15 K, x2 = 0.2502	851.13 ± 0.17	–
313.15 K, x2 = 0.2996	851.64 ± 0.16	25.57 ± 0.29
313.15 K, x2 = 0.3507	852.22 ± 0.16	–
313.15 K, x2 = 0.3987	852.78 ± 0.16	25.16 ± 0.28
313.15 K, x2 = 0.4497	853.39 ± 0.16	–
313.15 K, x2 = 0.5008	854 ± 0.16	24.79 ± 0.28
313.15 K, x2 = 0.5499	854.62 ± 0.16	–
313.15 K, x2 = 0.5964	855.24 ± 0.15	24.42 ± 0.27
313.15 K, x2 = 0.6503	855.99 ± 0.15	–
313.15 K, x2 = 0.6995	856.68 ± 0.15	24.07 ± 0.27
313.15 K, x2 = 0.7499	857.4 ± 0.15	–
313.15 K, x2 = 0.7994	858.19 ± 0.15	23.79 ± 0.27
313.15 K, x2 = 0.8499	858.99 ± 0.15	–
313.15 K, x2 = 0.9	859.83 ± 0.14	23.54 ± 0.26
313.15 K, x2 = 0.9495	860.67 ± 0.14	–

Cc1cc(C)cc(C)c1 [1,3,5-trimethylbenzene] + CCCOC(C)=O
Conditions	mass density [kg/m3]	surface tension liquid-gas [mN/m]
298.15 K, x2 = 0	861.04 ± 0.18	28.09 ± 0.31
298.15 K, x2 = 0.0498	861.7 ± 0.17	–
298.15 K, x2 = 0.0996	862.38 ± 0.17	27.63 ± 0.31
298.15 K, x2 = 0.1504	863.1 ± 0.17	–
298.15 K, x2 = 0.2006	863.85 ± 0.17	27.16 ± 0.3
298.15 K, x2 = 0.2502	864.63 ± 0.17	–
298.15 K, x2 = 0.3006	865.46 ± 0.17	26.7 ± 0.3
298.15 K, x2 = 0.3499	866.32 ± 0.16	–
298.15 K, x2 = 0.4003	867.23 ± 0.16	26.27 ± 0.29
298.15 K, x2 = 0.4498	868.17 ± 0.16	–
298.15 K, x2 = 0.4985	869.14 ± 0.16	25.85 ± 0.29
298.15 K, x2 = 0.5526	870.28 ± 0.16	–
298.15 K, x2 = 0.6001	871.33 ± 0.16	25.46 ± 0.28
298.15 K, x2 = 0.65	872.49 ± 0.16	–
298.15 K, x2 = 0.6987	873.7 ± 0.15	25.09 ± 0.28
298.15 K, x2 = 0.7369	874.66 ± 0.15	–
298.15 K, x2 = 0.7983	876.31 ± 0.15	24.73 ± 0.28
298.15 K, x2 = 0.8504	877.83 ± 0.15	–
298.15 K, x2 = 0.8995	879.31 ± 0.15	24.35 ± 0.27
298.15 K, x2 = 0.9397	880.63 ± 0.15	–
303.15 K, x2 = 0	856.96 ± 0.18	27.67 ± 0.31
303.15 K, x2 = 0.1	857.96 ± 0.17	27.18 ± 0.3
303.15 K, x2 = 0.2012	859.34 ± 0.17	26.69 ± 0.3
303.15 K, x2 = 0.2995	860.81 ± 0.17	26.2 ± 0.29
303.15 K, x2 = 0.3998	862.5 ± 0.16	25.74 ± 0.29
303.15 K, x2 = 0.4996	864.32 ± 0.16	25.3 ± 0.28
303.15 K, x2 = 0.6004	866.41 ± 0.16	24.9 ± 0.28
303.15 K, x2 = 0.7007	868.63 ± 0.16	24.5 ± 0.28
303.15 K, x2 = 0.7987	871.2 ± 0.15	24.12 ± 0.27
303.15 K, x2 = 0.9009	874.11 ± 0.15	23.73 ± 0.27
308.15 K, x2 = 0	852.84 ± 0.18	27.24 ± 0.3
308.15 K, x2 = 0.0985	853.66 ± 0.17	26.73 ± 0.3
308.15 K, x2 = 0.1992	854.81 ± 0.17	26.2 ± 0.29
308.15 K, x2 = 0.3018	856.13 ± 0.17	25.69 ± 0.29
308.15 K, x2 = 0.3991	857.53 ± 0.17	25.21 ± 0.28
308.15 K, x2 = 0.5009	859.15 ± 0.16	24.75 ± 0.28
308.15 K, x2 = 0.6012	861.08 ± 0.16	24.33 ± 0.28
308.15 K, x2 = 0.6997	863.19 ± 0.16	23.91 ± 0.27
308.15 K, x2 = 0.7983	865.52 ± 0.15	23.52 ± 0.27
308.15 K, x2 = 0.8997	868.19 ± 0.15	23.11 ± 0.26
313.15 K, x2 = 0	848.74 ± 0.18	26.82 ± 0.3
313.15 K, x2 = 0.0503	848.97 ± 0.18	–
313.15 K, x2 = 0.1004	849.28 ± 0.17	26.28 ± 0.29
313.15 K, x2 = 0.1501	849.65 ± 0.17	–
313.15 K, x2 = 0.1999	850.05 ± 0.17	25.73 ± 0.29
313.15 K, x2 = 0.2499	850.49 ± 0.17	–
313.15 K, x2 = 0.3004	851.02 ± 0.17	25.19 ± 0.28
313.15 K, x2 = 0.3502	851.58 ± 0.17	–
313.15 K, x2 = 0.3998	852.18 ± 0.17	24.69 ± 0.28
313.15 K, x2 = 0.449	852.83 ± 0.16	–
313.15 K, x2 = 0.5001	853.57 ± 0.16	24.21 ± 0.27
313.15 K, x2 = 0.5502	854.4 ± 0.16	–
313.15 K, x2 = 0.6	855.29 ± 0.16	23.76 ± 0.27
313.15 K, x2 = 0.6503	856.26 ± 0.16	–
313.15 K, x2 = 0.7005	857.33 ± 0.16	23.33 ± 0.27
313.15 K, x2 = 0.7499	858.44 ± 0.16	–
313.15 K, x2 = 0.8003	859.87 ± 0.16	22.92 ± 0.26
313.15 K, x2 = 0.8499	861.27 ± 0.15	–
313.15 K, x2 = 0.9003	862.85 ± 0.15	22.5 ± 0.26
313.15 K, x2 = 0.9504	864.3 ± 0.15	–
